Reference: publication PMC9320749, “Synthesis, Molecular Docking Study, and Cytotoxic Activity against MCF Cells of New Thiazole–Thiophene Scaffolds” (Molecules, 2022)
Where two headings read alike, the source gives them in different places.

What was measured:
in vitro = settings: rhesus monkey
MCF-7 [1] = assay: cells; settings: Homo sapiens, MCF7, 72 h, read-out: IC50 (μM) MCF-7, MCF-7 breast carcinoma cells; mean of three independent experiments; 72 h incubation
Protocol: (§1) The results were used to plot a dose–response curve, from which the concentrations of the tested samples required to kill half of the cell population (IC50) were determined. In addition, cytotoxic activities were expressed as the mean IC50 calculated from three independent experiments.
(§2) The cytotoxic potentials of the newly synthesized compounds was carried out at the Regional Center for Mycology and Biotechnology at Al-Azhar University, Cairo, Egypt. Cells were purchased from the Egyptian Holding Company for Biological Products and Vaccines (VACSERA, Giza, Egypt) and kept in a tissue culture unit. Cells were grown in Roswell Park Memorial Institute (RPMI)-1640 medium supplemented with 10% heat-inactivated fetal bovine serum (FBS), 50 units/mL penicillin, and 50 mg/mL streptomycin, and maintained in a humidified atmosphere containing 5% CO2 [11, 25]. Cells were maintained as monolayer cultures using serial subculture. Cell culture reagents were obtained from Lonza (Basel, Switzerland). The anticancer activities of the rest of the compounds were evaluated in MCF-7 (breast cancer) cells. In addition, the sulforhodamine B (SRB) assay method, as described previously in [39, 40], was used to determine cytotoxicity. Exponentially growing cells were collected using 0.25% trypsin–EDTA and seeded in 96-well plates at 1000–2000 cells/well in RBMI-1640 supplemented medium. After 24 h, cells were incubated for 72 h with various concentrations of the compounds tested. Following 72 h of incubation, the cells were fixed with 10% trichloroacetic acid for 1 h at 4 °C. Wells were stained for 10 min at room temperature with 0.4% sulforhodamine B (SRBC) dissolved in 1% acetic acid. Plates were air-dried for 24 h, and the dye was solubilized with Tris–HCl for 5 min on a shaker at 1600 rpm. The optical density (OD) of each well was measured spectrophotometrically at 564 nm using an ELISA microplate reader (ChroMate-4300, Palm City, FL, USA). IC50 values were calculated using a Boltzmann sigmoidal concentration–response curve using non-linear regression fitting models (Graph Pad, Prism Version 9, GraphPad Software, San Diego, CA, USA).

MCF-7 [2] = settings: for IC50: read-out: IC50 (μM) MCF-7, MCF-7 breast carcinoma cells, mean of three independent experiments, 72 h incubation
Protocol: as §1, §2

IC50 (MCF-7 [1]) [µM] | melting point [°C] | IC50 (MCF-7 [2]) [µM] | Structure (SMILES) | CC50 at 72 h (in vitro) [µM] | SI Values (CC50/IC50) (MCF-7 [2])
16.3 ± 1 |  |  | C/C(=N\N=c1/sc(/N=N/c2ccccc2)c(C)n1N)c1cccs1 [4a] | 183 ± 21.3 | 11.23
10.2 ± 0.8 |  |  | C/C(=N\N=c1/sc(/N=N/c2ccc(C)cc2)c(C)n1N)c1cccs1 [4b] | 176 ± 18.2 | 
19.7 ± 1.3 | 205 to 207 |  | C/C(=N\N=c1/sc(/N=N/c2ccc(Cl)cc2)c(C)n1N)c1cccs1 [4c] |  | 
19.8 ± 0.9 | 227 to 229 |  | C/C(=N\N=c1/sc(/N=N/c2ccc(Cl)cc2Cl)c(C)n1N)c1cccs1 [4d] |  | 
13.6 ± 0.9 |  |  | CC(=NN=C1SC(=NNc2ccc(C)cc2)C(=O)N1N)c1cccs1 [8a, 3-Amino-2-[(1-(thiophen-2-yl)ethylidene)hydrazineylidene]-5-(2-(p-tolyl)hydrazineylidene) thiazolidin-4-one] | 149 ± 15.9 | 10.99
23.7 ± 1.6 | 177 to 179 |  | CC(=NN=C1SC(=NNc2ccc(Cl)cc2)C(=O)N1N)c1cccs1 [8b, 3-Amino-5-(2-(4-chlorophenyl)hydrazineylidene)-2-[(1-(thiophen-2-yl)ethylidene) hydrazineylidene]thiazolidin-4-one] |  | 
21 ± 0.7 | 166 to 168 |  | C/C(=N\N=c1/scc(-c2ccccc2)n1N)c1cccs1 [11a] |  | 
17.9 ± 0.8 |  |  | C/C(=N\N=c1/scc(-c2ccc(C)cc2)n1N)c1cccs1 [11b] | 231 ± 25 | 12.93
> 38 | 180 to 182 | 38.2 ± 1.4 | C/C(=N\N=c1/scc(-c2ccc(Cl)cc2)n1N)c1cccs1 [11c] |  | 
> 38 | 194 to 196 | 54.8 ± 1.6 | C/C(=N\N=c1/scc(-c2ccc([N+](=O)[O-])cc2)n1N)c1cccs1 [11d] |  | 
11.5 ± 0.8 |  |  | CC(=O)c1sc(=NN=C(C)c2cccs2)n(N)c1C [13a, 1-[3-Amino-4-methyl-2-((1-(thiophen-2-yl)ethylidene)hydrazineylidene]-2,3-dihydrothiazol-5-yl)ethan-1-one] | 163 ± 19.1 | 14.14
16.3 ± 1.4 |  |  | CCOC(=O)c1s/c(=N\N=C(/C)c2cccs2)n(N)c1C [13b] | 135 ± 9.58 | 8.29

Structure (SMILES) | IC50 (MCF-7 [1]) [µM] | melting point [°C] | IC50 (MCF-7 [2]) [µM] | CC50 at 72 h (in vitro) [µM] | SI Values (CC50/IC50) (MCF-7 [2])
N.N.[Cl][Pt][Cl] [Cisplatin, cisplatin, reference compound] |  |  | 13.3 ± 0.61 |  | 
